Where two headings read alike, the source gives them in different places.
Legend:
[1] = tested on: EGFR; parameters: method as in Elkins et al., 2016; conditions: PKIS1, Caliper assay, ref Elkins et al., 2016; cited from earlier work
[2] = tested on: intracellular MRSA in HeLa cells; assay: Gentamicin protection assay with CFU count in MRSA-infected HeLa cells; format: cell-based, Staphylococcus aureus; conditions: 10 µM, MRSA-infected HeLa cells
Description: The cells were resuspended in cell culture medium without antibiotics, seeded with 10,000 cells/well into Costar flat-bottom 96-well plates (Corning, Amsterdam, the Netherlands), and were incubated overnight at 37°C/5% CO2. The next day, the bacteria were centrifuged at ≥1800 g for 15 min and resuspended in cold PBS + 5 mM ethylenediaminetetraacetic acid (EDTA). The number of CFUs present in the bacterial suspension was estimated from the optical density at 600 nm (OD600) by assuming 8x10^8 CFUs to be present in a bacterial suspension with OD600 = 1, based on prior titrations. The bacterial suspension was diluted in cell culture medium without antibiotics and added to the cells. Accuracy of the multiplicity of infection (MOI) was validated by plating serial dilutions of the MRSA inoculums on Difco TS agar plates (BD Biosciences). The calculated mean MOI throughout all experiments was 6.8 ± 4.6 (mean ± SD). Infected cells were centrifuged for 3 min at 150 g and incubated for 1 hour at 37°C/5% CO2. Next, the cells were incubated with fresh cell culture medium supplemented with 30 µg/ml gentamicin sulphate (Lonza BioWhittaker, Basel, Switzerland) for 15 min at 37°C/5% CO2 to kill residual extracellular bacteria. Infected cells were incubated overnight at 37°C/5% CO2 in cell culture medium in the presence of kinase inhibitors and 5 µg/ml gentamicin sulphate-containing medium to prevent the growth of extracellular bacteria. The solvent of the compounds, DMSO, was used at equal % v/v as a negative control. For the screen, each compound was tested in triplicate, on separate cell culture plates, resulting in triplicate values for each kinase inhibitor.
Infected cells were lysed in sterile water + 0.05% UltraPure SDS solution (Invitrogen, ThermoFisher Scientific) to release intracellular bacteria. Bacterial suspensions and lysates of cells infected with MRSA were 5-fold serially diluted and 10-μl drops were plated on square TS agar plates. The plates were left to dry and incubated overnight at 37°C/5% CO2.

[3] = tested on: HeLa cells; assay: Compound screen by flow cytometry: HeLa cell count as surrogate readout of cell viability (z-scoreHeLa); format: cell-based, human; conditions: for cell count rep 1 / z-scoreHeLa rep 1: replicate 1; for cell count rep 2 / z-scoreHeLa rep 2: replicate 2; for cell count rep 3 / z-scoreHeLa rep 3: replicate 3; for z-scoreHeLa mean / z-scoreHeLa rep 1 / z-scoreHeLa rep 2 / z-scoreHeLa rep 3 / cell death: PKIS compound screen; for z-scoreHeLa mean: mean of 3 replicates
Outline: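 HeLa cells were infected with GFP-MRSA (mean MOI 6.8 ± 4.6) for 1 h, and extracellular bacteria were killed with 30 µg/ml gentamicin. Cells were then incubated overnight with kinase inhibitors in 5 µg/ml gentamicin, in triplicate against DMSO controls. Flow-cytometric cell count served as a viability surrogate, expressed as a plate z-score.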

[4] = tested on: HER4; parameters: method as in Elkins et al., 2016; conditions: PKIS1, Caliper assay, ref Elkins et al., 2016; cited from earlier work
[5] = tested on: intracellular MRSA; format: cell-based, Staphylococcus aureus; conditions: for %GFP+ rep 1 / z-scoreMRSA+ rep 1: replicate 1; for %GFP+ rep 2 / z-scoreMRSA+ rep 2: replicate 2; for %GFP+ rep 3 / z-scoreMRSA+ rep 3: replicate 3; for z-scoreMRSA+ mean / z-scoreMRSA+ rep 1 / z-scoreMRSA+ rep 2 / z-scoreMRSA+ rep 3 / effect / hit: PKIS compound screen; for z-scoreMRSA+ mean: mean of 3 replicates; for hit: Yes/No call (effect without cell death); for z-score GFP+: flow cytometry screen, 10 µM, HeLa cells
Outline: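 HeLa cells infected with GFP-MRSA (MOI ~6.8), gentamicin-cleared, then incubated overnight at 37°C with inhibitors plus 5 µg/ml gentamicin; DMSO as negative control, triplicates. Flow cytometry gave % GFP-positive cells and cell count (viability surrogate); hits by plate z-score (MRSA ≤ -2, HeLa count ≥ -3).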

[6] = tested on: HER2; parameters: method as in Elkins et al., 2016; conditions: PKIS1, Caliper assay, ref Elkins et al., 2016; cited from earlier work
[7] = PKIS compound screen raw data, HeLa cell count
[8] = PKIS compounds raw data, HeLa cell count
[9] = PKIS compound screen raw data, MRSA-infected HeLa cells
[10] = PKIS compounds raw data, MRSA-infected HeLa cells

Row | Structure (SMILES) | % inhibition at 1 µM EGFR [1] | CFU (% of DMSO) at 10 µM [2] | cell count rep 1 [3, 7] | cell count rep 2 [3, 7] | cell count rep 3 [3, 7] | z-scoreHeLa mean ([3]; HeLa cell count) | z-scoreHeLa rep 1 ([3]; HeLa cell count) | z-scoreHeLa rep 2 ([3]; HeLa cell count) | z-scoreHeLa rep 3 ([3]; HeLa cell count) | cell death ([3]; Yes/No call) | cell death ([3]; Yes/No call on z-scoreHeLa) | z-scoreHeLa mean [3] | z-scoreHeLa rep 1 [3] | z-scoreHeLa rep 2 [3] | z-scoreHeLa rep 3 [3] | cell count rep 1 [3, 8] | cell count rep 2 [3, 8] | % inhibition at 1 µM HER4 [4] | hit [5] | % inhibition at 1 µM HER2 [6] | other results
1 | CS(=O)(=O)CCNCc1ccc(-c2ccc3ncnc(Nc4ccc(OCc5ccccc5)c(Cl)c4)c3c2)o1 [GW574783B] | 91% | 53.4 % of DMSO | 17891 | 35533 | 50424 | 0.46 | -0.34 | 0.14 | 1.58 | No | No | 1.91 | 1.69 | 1.91 | 2.13 | 8853 | 8889 | 89% | No and Yes | 75% | cell count rep 3 [3, 8]: 8965; %GFP+ rep 1 [5, 9]: 11.2%; %GFP+ rep 2 [5, 9]: 11.2%; %GFP+ rep 3 [5, 9]: 14.4%; z-scoreMRSA+ mean ([5]; MRSA-infected HeLa cells): -1.99; z-scoreMRSA+ rep 1 ([5]; MRSA-infected HeLa cells): -2.11; z-scoreMRSA+ rep 2 ([5]; MRSA-infected HeLa cells): -2.20; z-scoreMRSA+ rep 3 ([5]; MRSA-infected HeLa cells): -1.64; effect ([5]; Yes/No call): Yes; effect ([5]; Yes/No call on z-scoreMRSA+): No; z-scoreMRSA+ mean [5]: -2.62; z-scoreMRSA+ rep 1 [5]: -2.66; z-scoreMRSA+ rep 2 [5]: -2.54; z-scoreMRSA+ rep 3 [5]: -2.65; %GFP+ rep 1 [5, 10]: 13.4%; %GFP+ rep 2 [5, 10]: 12.8%; %GFP+ rep 3 [5, 10]: 13.0%; z-score GFP+ [5]: -2.30
2 | [O-][S+]1CCN(Cc2ccc(-c3ccc4ncnc(Nc5ccc(OCc6cccc(F)c6)c(Cl)c5)c4c3)o2)CC1 [GW576609A] | 84% |  | 27921 | 36007 | 40876 | 0.49 | 1.18 | 0.23 | 0.0554 |  | No |  |  |  |  |  |  | 91% | No | 80% | %GFP+ rep 1 [5, 9]: 13.3%; %GFP+ rep 2 [5, 9]: 14.3%; %GFP+ rep 3 [5, 9]: 14.3%; z-scoreMRSA+ mean ([5]; MRSA-infected HeLa cells): -1.46; z-scoreMRSA+ rep 1 ([5]; MRSA-infected HeLa cells): -1.45; z-scoreMRSA+ rep 2 ([5]; MRSA-infected HeLa cells): -1.27; z-scoreMRSA+ rep 3 ([5]; MRSA-infected HeLa cells): -1.67; effect ([5]; Yes/No call on z-scoreMRSA+): No
3 | [O-][S+]1CCN(Cc2ccc(-c3ccc4ncnc(Nc5ccc(OCc6ccccc6)c(F)c5)c4c3)o2)CC1 [GW576924A] | 82% | 137.9 % of DMSO |  |  |  |  |  |  |  | No |  | -0.58 | -1.18 | -0.60 | 0.0442 | 3467 | 3479 | 75% | Yes | 91% | cell count rep 3 [3, 8]: 7054; effect ([5]; Yes/No call): Yes; z-scoreMRSA+ mean [5]: -2.35; z-scoreMRSA+ rep 1 [5]: -1.94; z-scoreMRSA+ rep 2 [5]: -2.43; z-scoreMRSA+ rep 3 [5]: -2.70; %GFP+ rep 1 [5, 10]: 7.1%; %GFP+ rep 2 [5, 10]: 6.2%; %GFP+ rep 3 [5, 10]: 6.8%; z-score GFP+ [5]: -2.36

Source: paper PMC10999543, “Identification of kinase modulators as host-directed therapeutics against intracellular methicillin-resistant Staphylococcus aureus” (Frontiers in Cellular and Infection Microbiology, 2024)
